Measurements as given in US20090148391A1, “[…] ACTIVE PREPARATIONS COMPRISING […] DERIVATIVES AND FURTHER SKIN AND/OR HAIR LIGHTENING AND/OR SENILE KERATOSIS REDUCING COMPOUNDS” (SYMRISE GmbH & Co. KG, priority 2006, published 2009).

How the values were obtained:
fungal-tyrosinase = experiment: Tyrosinase-Assay: oxidation of L-DOPA to dopachrome with or without test substance, photometric detection at 475 nm; type: biochemical; details: weight ratio of the mixture; 50 u/ml fungal-tyrosinase, pH 6.8, 37° C., L-DOPA 0.1 mg/ml
Method: The principle of the assay is to oxidise L-DOPA to dopachrome with or without the test substance under physiological conditions in a controlled reaction. Dopachrome and dopaquinone is detected via photometric detection methods. Commercially available fungal-tyrosinase is used for testing the enzyme activity and the correlating inhibition of melanin production.
The enzymatic reaction was conducted with or without a potential inhibitor of the tyrosinase of constituents (a) and (b), such as styrylresorcinol of formula 3 (more than 99% purity) of constituent (a) alone, specific compounds of the constituent b) selected from the group consisting of (i) chelating agents, (ii) phenolic derivatives, plant extracts with an amount of phenolic derivatives and (iii) organic acid derivatives alone, as well as mixtures thereof.
The concentrations of the inhibitor or a mixture thereof range from 0.1 to 1000 μg/ml. The enzyme activity was adjusted to 50 u/ml fungal-tyrosinase in 66.7 mM phosphate buffer (pH=6.8). The reaction mixture was incubated for 10 minutes in a 96-well microtiter plate in a horizontal agitator at 37° C. Then L-DOPA (end concentration: 0.1 mg/ml). The enzymatic conversion to dopachrome is related to the inhibition activity of the single test substances or the mixture thereof, which is shown in a brown discolouration, which can be detected at 475 nm. […]

[1] = system: B16V mouse melanoma cells; details: cited from earlier work
3T3 firbrosarcoma cells = details: cited from earlier work

| SMILES | Ratio 4-(1-phenylthyl)-1,3-dihydroxybenzene CARN 85-27-8:(i) Chelating Agent showing synergistic enhanced lightening activity in the tyrosinase assay (fungal-tyrosinase) | tyrosinase-inhibiting activity [1] | tyrosinase-inhibiting activity (3T3 firbrosarcoma cells) |
| --- | --- | --- | --- |
| O=c1cc(CO)occ1O [Kojic acid, 5-hydroxy-2-hydroxymethyl-4-pyranone] | 1.3 | – | – |
| CC(c1ccccc1)c1ccc(O)cc1O (stereo not drawn) [styrylresorcinol of the formula 3, 4-(1-phenylethyl)-1,3-dihydroxybenzene] | – | clearly demonstrated | clearly demonstrated |
